Measurements reported in patent publication US20080220056A1, “Treatment for liver disease” (UNIVERSITY OF SOUTHAMPTON, priority 2002, published 2008).

Tests used:
Type in all cases: cell-based
[1] = tested on: rat hepatic stellate cells; assay: Low molecular weight DNA fragmentation (nucleosomal ladder) in rat hepatic stellate cells; settings: 37.5 μmol/L gliotoxin
rat hepatocytes = assay: Rat hepatocyte viability by attachment and trypan blue exclusion; settings: 50 μmol/L gliotoxin, four hours
Experimental: (§1) Rat hepatocytes were isolated by collagenase perfusion essentially as previously described. (Harvey et al., Biochemical J., (1998) 331:273-281). Hepatocytes were cultured as outlined for hepatic stellate cells except that they were initially seeded onto collagen coated plates in William's medium E supplemented with 10% fetal calf serum and 1 μg/mL insulin for the first 2 hours.
(§2) Cells were treated with gliotoxin dissolved in DMSO vehicle (added to medium from a 2000-fold molar concentrated stock). Control cells received DMSO vehicle only (i.e., 0.05% vol/vol). All other additions to culture medium were made from concentrated stocks dissolved in DMSO or by direct addition to culture medium. Protein contents of wells were determined using the Lowry assay (Lowry et al., J. Biol. Chem., (1951)193: 265-275).
The effect of various compounds on cell viability and attachment was determined. Viability of rat hepatocytes as judged by attachment and 0.1% (wt/vol) trypan blue exclusion after four hours treatment with: […]

[2] = tested on: rat hepatic stellate cells; assay: Trypan blue exclusion of treated rat hepatic stellate cells; settings: rat HSC; 1.5 μmol/L gliotoxin or 200 μmol/L chlorpromazine
[3] = tested on: rat hepatic stellate cells; assay: Propidium iodide FACS analysis of DNA strand breaks in rat hepatic stellate cells; settings: 1.5 μmol/L gliotoxin, two hours
Experimental: (§3) Hepatic stellate cells cultured in 35-mm diameter dishes (Greiner) were harvested, pelleted by centrifugation and DNA fragmentation determined as outlined elsewhere (Elsharkawy et al., Hepatology (1999) 30:761-769). Propidium Iodide Flow-Activated Cell Sorting Analysis Detached cells were pelleted by centrifugation, washed in PBS, and resuspended in HYPO buffer (0.1% wt/vol) Na3Citrate and 0.1% (wt/vol) Triton™ X-100 containing […] propidium iodide and incubated for 1 hour. The cells were then analyzed by fluorescence-activated cell sorter (FACS) with a Becton Dickinson (San Jose, Calif.) FACScan instrument using a 488 nm excitation wavelength with a band pass filter set at 530 nm. Attached cells were scraped in HYPO buffer after washing cells with PBS.
To characterize the extent and significance of apoptosis in response to gliotoxin, rat hepatic stellate cell DNA strand breaks were assessed by FACS analysis of propidium iodide stained cells. Culture-activated (14-day) rat hepatic stellate cells were treated with 0.05% (vol/vol) DMSO vehicle control or with 1.5 lμmol/L gliotoxin for two hours, harvested, and stained with propidium iodide as outlined in the materials and methods section.

[4] = tested on: rat hepatic stellate cells; assay: Low molecular weight DNA fragmentation (nucleosomal ladder) in rat hepatic stellate cells; settings: rat HSC; 1.5 μmol/L; up to four hours
Experimental: as §3
The effect of gliotoxin on the cleavage of DNA to a nucleosomal ladder was examined because this phenomenon is characteristic of apoptosis. Culture activated (14-day) rat hepatic stellate cells in six well plates were treated with either 0.05% (vol/vol) DMSO for four hours or 1.5 μmol/L gliotoxin for zero hours, half an hour, one hour, two hours or four hours. At each time point, both detached and attached cells were harvested together and low molecular weight DNA (20,000 g supernatant) fragmentation determined as outlined in the materials and methods section. At least three separate experiments were performed. 1 kilobase DNA ladder (Promega) was used as a molecular weight marker.
The effect of various compounds on DNA laddering was then determined. Culture-activated (14-day) rat hepatic stellate cells in six-well plates were treated with:
After fours hours of treatment, DNA fragmentation was determined.
Culture activated (14 day) rat hepatic stellate cells in six well plates were treated with: • (a) 0.05% (vol/vol) DMSO; • (b) 1.5 μmol/L gliotoxin; • (c) 1.5 μmol/L gliotoxin with 100 μmol/L tamoxifen; • (d) 1.5 μmol/L gliotoxin with […] actinomycin d; • (e) 1.5 μmol/L gliotoxin with 10 μmol/L cycloheximide; • (f) 1.5 μmol/L gliotoxin with 10 μmol/L cyclosporin; • (g) 1.5 μmol/L gliotoxin with […] m-iodobenzylguanidine; • (h) 1.5 μmol/L gliotoxin with 50 μmol/L quin-2-am; • (i) 50 μmol/L guin-2-am alone; • (j) 250 μmol/L m-iodobenzylguanidine; • (k) 10 μmol/L cyclosporin; • (l) 10 μmol/L cycloheximide; • (m) 1 μg/ml actinomycin d; or • (n) 100 μmol/L tamoxifen.
After four hours of treatment, DNA fragmentation was determined as outlined in Materials and Methods.

[5] = tested on: caspase 3 activity in rat hepatic stellate cells; assay: Caspase 3 (Ac-DEVD-pNA cleavage) activity in rat hepatic stellate cells; settings: 1.5 μmol/L, three hours, versus DMSO control
Experimental: Hepatic stellate cells cultured in 100 mm diameter dishes (Greiner, Frickenhausen, Germany) were harvested and pelleted by centrifugation. The medium supernatant was discarded and the cell pellet was washed in 1 mL of ice-cooled phosphate buffered saline (PBS). Caspase 3 (DEVDase) activity was determined using a colorimetric CaspACE kit (Promega, Southampton, England) using the manufacturer's instructions.
Caspase 3 (Ac-DEVD-pNA cleavage) activity was then examined in control and gliotoxin-treated hepatic stellate cells. Culture activated rat hepatic stellate cells (14 days) in 100 mm diameter plates were treated with 0.05% (vol/vol) DMSO, 1.5 μmol/L gliotoxin, 20 μmol/L Z-VAD-FMK or 200 μmol/L chlorpromazine for three hours. The cells were then harvested for examination of caspase 3 activity as outlined in the materials and methods sections.

[6] = tested on: rat hepatocytes in comparison to rat hepatic stellate cells; assay: Cell attachment (protein assay): gliotoxin doses killing rat hepatocytes versus hepatic stellate cells; settings: attachment after four hours, in vitro
Experimental: as §1, §2
The necessary doses of gliotoxin required to kill rat hepatic stellate cells and hepatocytes were compared. Culture-activated (14-day) rat hepatic stellate cells or rat hepatocytes were treated with either 0.05% (vol/vol) DMSO or 1.5 μmol/L gliotoxin and cell attachment determined by direct assay of protein in each well after four hours as outlined in Materials and Methods. The results obtained are depicted in FIG. 3A and are expressed as the mean and standard deviation percentage attachment versus DMSO control for three separate experiments.

Q: How did the “level of DNA cleavage at high concentration versus lower concentrations” value [1] turn out when `CN1C(=O)[C@]23CC4=CC=C[C@H](O)[C@H]4N2C(=O)[C@@]1(CO)SS3` [gliotoxin] was run?
A: reduction in the level of DNA cleavage detected

Q: What about the “hepatocytes that do not exclude 0.1% (wt/vol) trypan blue” value (rat hepatocytes) of the same molecule?
A: approximately 90%

Q: And the “hepatocyte attachment to the substratum / membrane integrity” value (rat hepatocytes; 10 ng/mL TNF-α with 10 μmol/L cycloheximide)?
A: significant reductions in cell attachment to the substratum

Q: And the “0.1% (wt/vol) trypan blue exclusion (membrane integrity)” value [2]?
A: detached cells that excluded 0.1% (wt/vol) trypan blue

Q: What about the “propidium iodide nuclei fluorescence (DNA cleavage)” value [3] of the same molecule?
A: broad low level of fluorescence

Q: What about the “cleavage of DNA to a nucleosomal ladder” value [4] of the same molecule?
A: time dependent increase in DNA cleavage to a nucleosomal ladder

Q: And the “increase in caspase 3 activity” value [5]?
A: 7.6 fold

Q: And the “higher concentrations required to kill rat hepatocytes in comparison to rat hepatic stellate cells” value [6]?
A: 10 to 100 fold
